How the values were obtained:
[1] = molecular target: T1, mineralocorticoid (MR) receptor (Homo sapiens, UniProt P08235); test: MR functional assay using T47D/MMTV-5 cells; type: cell-based; settings: read-out: inhibition of the MR functional response
T1 construct: containing endogenous mineralocorticoid-(MR) and progesterone (PR) receptors; endogenous in cells; host or cells: T47D/MMTV-5 (human breast carcinoma, stably carrying the pMAMneo-Luc reporter)
T1 sequence (P08235 1-984): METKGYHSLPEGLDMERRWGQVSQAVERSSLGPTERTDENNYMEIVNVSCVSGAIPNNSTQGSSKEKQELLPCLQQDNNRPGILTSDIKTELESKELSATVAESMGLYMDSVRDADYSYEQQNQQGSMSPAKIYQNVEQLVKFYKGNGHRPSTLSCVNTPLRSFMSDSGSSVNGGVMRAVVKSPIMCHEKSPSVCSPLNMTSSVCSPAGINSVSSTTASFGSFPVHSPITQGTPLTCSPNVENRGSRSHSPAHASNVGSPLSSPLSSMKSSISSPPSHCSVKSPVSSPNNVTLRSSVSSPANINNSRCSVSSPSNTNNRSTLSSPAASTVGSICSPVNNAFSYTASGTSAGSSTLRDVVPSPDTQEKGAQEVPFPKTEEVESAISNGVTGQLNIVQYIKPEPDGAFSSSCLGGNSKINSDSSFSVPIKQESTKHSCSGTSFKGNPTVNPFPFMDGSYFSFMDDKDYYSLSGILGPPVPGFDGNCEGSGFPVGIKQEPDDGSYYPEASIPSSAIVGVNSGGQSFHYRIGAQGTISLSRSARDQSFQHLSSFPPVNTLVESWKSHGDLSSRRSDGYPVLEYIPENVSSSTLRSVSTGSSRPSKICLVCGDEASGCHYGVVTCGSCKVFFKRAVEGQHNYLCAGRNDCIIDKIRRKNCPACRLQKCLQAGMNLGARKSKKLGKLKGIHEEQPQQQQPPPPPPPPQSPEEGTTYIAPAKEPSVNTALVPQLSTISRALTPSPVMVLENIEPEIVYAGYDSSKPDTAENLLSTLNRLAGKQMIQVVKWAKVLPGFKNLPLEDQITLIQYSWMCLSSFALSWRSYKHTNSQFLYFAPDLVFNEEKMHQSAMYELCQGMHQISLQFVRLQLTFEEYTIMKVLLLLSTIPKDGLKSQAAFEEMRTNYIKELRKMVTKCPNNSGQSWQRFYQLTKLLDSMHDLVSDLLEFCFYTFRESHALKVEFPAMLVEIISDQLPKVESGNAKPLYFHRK
Description: (§1) As for the SW 1353 cell line, T47D cells was transfected with the same pMAMneo-Luc plasmid, and stable lines selected with geneticin.
(§2) T47D/MMTV-5 cells were distributed in 96-well plates (100 μl) in RPMI1640 medium +10% Charcoal stripped FCS. The cells were incubated for 24 hrs in the CO2-oven. A volume of 100 μl of the compound dilutions in medium +agonist (500 nM aldost; 50 nM progest) were added, and the plates further incubated for another 24 hrs after which the luciferase expression was measured.

[2] = molecular target: T2, progesterone (PR) receptor (Homo sapiens, UniProt P06401); test: PR functional assay using T47D/MMTV-5 cells; type: cell-based; settings: read-out: inhibition of the PR agonist response
T2 construct: containing endogenous mineralocorticoid-(MR) and progesterone (PR) receptors; endogenous in cells; host or cells: T47D/MMTV-5 (human breast carcinoma, stably carrying the pMAMneo-Luc reporter)
T2 sequence (P06401 1-933): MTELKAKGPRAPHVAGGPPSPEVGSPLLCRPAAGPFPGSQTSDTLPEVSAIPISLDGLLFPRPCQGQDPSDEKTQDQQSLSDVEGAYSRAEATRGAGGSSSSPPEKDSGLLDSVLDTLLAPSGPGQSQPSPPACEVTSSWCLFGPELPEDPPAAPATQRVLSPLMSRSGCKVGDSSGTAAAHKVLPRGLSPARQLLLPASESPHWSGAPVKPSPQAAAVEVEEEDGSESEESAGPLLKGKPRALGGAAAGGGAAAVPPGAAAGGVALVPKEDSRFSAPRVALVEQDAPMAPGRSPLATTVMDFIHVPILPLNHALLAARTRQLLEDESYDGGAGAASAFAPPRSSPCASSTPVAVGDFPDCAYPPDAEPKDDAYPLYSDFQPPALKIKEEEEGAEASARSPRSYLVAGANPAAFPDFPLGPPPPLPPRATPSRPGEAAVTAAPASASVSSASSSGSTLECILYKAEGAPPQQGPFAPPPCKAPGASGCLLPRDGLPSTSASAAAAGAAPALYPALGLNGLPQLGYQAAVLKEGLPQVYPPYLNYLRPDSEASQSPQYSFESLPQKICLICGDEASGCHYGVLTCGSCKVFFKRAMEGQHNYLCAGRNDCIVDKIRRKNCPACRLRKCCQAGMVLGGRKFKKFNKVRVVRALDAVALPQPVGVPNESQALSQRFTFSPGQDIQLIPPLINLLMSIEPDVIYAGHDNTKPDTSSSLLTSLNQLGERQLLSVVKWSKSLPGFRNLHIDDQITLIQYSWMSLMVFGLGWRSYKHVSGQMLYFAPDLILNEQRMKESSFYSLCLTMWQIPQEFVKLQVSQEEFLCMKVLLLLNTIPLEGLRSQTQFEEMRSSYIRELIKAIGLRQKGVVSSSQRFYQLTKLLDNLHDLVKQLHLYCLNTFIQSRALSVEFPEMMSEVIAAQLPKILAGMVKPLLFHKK
Description: as §1, §2

glucocorticoid receptors [3] = molecular target: T3, glucocorticoid receptors (Homo sapiens, UniProt P04150); test: Glucocorticoid receptor binding displacement assay with 3H-dexamethasone; design: This GR was a full-length steroid hormone receptor; host or cells: recombinant baculovirus-infected insect cells
T3 sequence (P04150 1-777): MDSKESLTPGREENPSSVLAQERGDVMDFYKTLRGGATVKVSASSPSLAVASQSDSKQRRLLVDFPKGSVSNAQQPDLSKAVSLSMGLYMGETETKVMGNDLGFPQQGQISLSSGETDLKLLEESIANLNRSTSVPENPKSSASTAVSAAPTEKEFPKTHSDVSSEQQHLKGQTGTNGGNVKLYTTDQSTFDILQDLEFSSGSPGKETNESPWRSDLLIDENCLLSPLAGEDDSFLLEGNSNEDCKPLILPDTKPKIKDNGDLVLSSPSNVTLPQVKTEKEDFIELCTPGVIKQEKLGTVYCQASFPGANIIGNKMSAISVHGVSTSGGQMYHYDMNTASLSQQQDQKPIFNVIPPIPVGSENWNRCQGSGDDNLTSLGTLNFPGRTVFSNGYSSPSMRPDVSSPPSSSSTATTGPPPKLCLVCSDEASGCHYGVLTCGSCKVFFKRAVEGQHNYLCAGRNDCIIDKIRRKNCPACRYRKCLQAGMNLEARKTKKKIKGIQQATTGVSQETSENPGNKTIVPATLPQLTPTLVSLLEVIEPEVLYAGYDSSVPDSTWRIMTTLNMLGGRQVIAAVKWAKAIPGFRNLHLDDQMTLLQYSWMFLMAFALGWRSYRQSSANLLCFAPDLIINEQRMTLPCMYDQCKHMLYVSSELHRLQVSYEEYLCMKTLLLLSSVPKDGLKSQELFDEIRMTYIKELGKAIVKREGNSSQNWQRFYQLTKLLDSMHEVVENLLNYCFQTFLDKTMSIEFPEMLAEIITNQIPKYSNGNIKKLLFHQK

glucocorticoid receptors [4] = molecular target: T3, glucocorticoid receptors; test: GR functional assay using SW1353/MMTV-5 cells (dexamethasone-induced luciferase); type: cell-based; design: contains endogenous glucocorticoid receptors; endogenous in cells; host or cells: SW1353/MMTV-5 (human chondrosarcoma, stably carrying the pMAMneo-Luc reporter)
How it was run: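 Human chondrosarcoma line stably carrying firefly luciferase under an MMTV LTR glucocorticoid-responsive element, with endogenous GR. Cells were plated in 96-well plates and held 24 hrs in geneticin-free medium without CO2.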

[5] = Ki from IC50 by Cheng-Prusoff, 2.5 nM 3H-dexamethasone, read-out: GR Binding

SMILES: CC(C)(C)c1ccc(S(=O)(=O)N2CCC3=Cc4c(cnn4-c4ccc(F)cc4)C[C@]3(C)C2)cc1 [Example 29, (S)-6-(4-tert-Butyl-benzenesulfonyl)-1-(4-fluoro-phenyl)-4a-methyl-4,4a,5,6,7,8-hexahydro-1H-1,2,6-triaza-cyclopenta[b]naphthalene]
- inhibition at 3 µM [1]: 10%
- inhibition at 3 µM [2]: 8%

SMILES: CC(C)(C)c1ccc(S(=O)(=O)N2CCC3=Cc4c(cnn4-c4ccc(F)cc4)C[C@]3(CN3CCC3)C2)cc1
- Ki (glucocorticoid receptors [3]): < 10 nM
- Ki (glucocorticoid receptors [4]): 10 to 100 nM

SMILES: CC(C)(C)c1ccc(S(=O)(=O)N2CCC3=Cc4c(cnn4-c4ccc(F)cc4)C[C@]3(CCO)C2)cc1
- Ki (glucocorticoid receptors [3]; [5]): < 10 nM
- Ki (glucocorticoid receptors [4]; read-out: GR Functional): 10 to 100 nM

SMILES: O=S(=O)(c1ccccc1)N1CCC2=Cc3c(cnn3-c3ccc(F)cc3)C[C@]2(CN2CCCC2)C1
- Ki (glucocorticoid receptors [3]; [5]): < 10 nM
- Ki (glucocorticoid receptors [4]; read-out: GR Functional): < 10 nM

SMILES: CCCCn1ncc2c1C=C1CCN(S(=O)(=O)c3ccc(C(C)(C)C)cc3)C[C@@]1(COCCOC)C2
- Ki (glucocorticoid receptors [3]; [5]): < 10 nM
- Ki (glucocorticoid receptors [4]; read-out: GR Functional): 10 to 100 nM

SMILES: Cc1ccc(S(=O)(=O)N2CCC3=Cc4c(cnn4-c4ccc(F)cc4)C[C@]3(CO)C2)cc1
- Ki (glucocorticoid receptors [3]; [5]): < 10 nM
- Ki (glucocorticoid receptors [4]; read-out: GR Functional): 10 to 100 nM

SMILES: CCCCn1ncc2c1C=C1CCN(S(=O)(=O)c3ccc(C)cc3)C[C@@]1(C(=O)OC)C2
- Ki (glucocorticoid receptors [3]; [5]): > 100 nM
- Ki (glucocorticoid receptors [4]; read-out: GR Functional): > 100 nM

SMILES: CN1CCOc2cc(S(=O)(=O)N3CCC4=Cc5[nH]ncc5CC4(Cc4ccccc4)C3)ccc21 (centres unmarked) [drawing 247]
- Ki (glucocorticoid receptors [3]; [5]): < 10 nM
- Ki (glucocorticoid receptors [4]; read-out: GR Functional): > 100 nM

SMILES: CC(C)(C)S(=O)(=O)N1CCC2=Cc3c(cnn3-c3ccc(F)cc3)C[C@]2(C)C1
- Ki (glucocorticoid receptors [3]; [5]): > 100 nM
- Ki (glucocorticoid receptors [4]; read-out: GR Functional): > 100 nM

SMILES: CC(C)(C)c1ccc(S(=O)(=O)N2CCC3=Cc4c(cnn4-c4ccc(F)cc4)C[C@]3(C(=O)N3CCCCC3)C2)cc1
- Ki (glucocorticoid receptors [3]; [5]): < 10 nM
- Ki (glucocorticoid receptors [4]; read-out: GR Functional): > 100 nM

SMILES: CC(C)(C)c1ccc(S(=O)(=O)N2CCC3=Cc4c(cnn4Cc4cccc(O)c4)CC3(Cc3ccccc3)C2)cc1 (centres unmarked) [drawing 241]
- Ki (glucocorticoid receptors [3]; [5]): > 100 nM
- Ki (glucocorticoid receptors [4]; read-out: GR Functional): > 100 nM

SMILES: CC(C)(C)c1ccc(S(=O)(=O)N2CC[C@H]3Cc4c(cnn4-c4ccc(F)cc4)C[C@]3(CO)C2)cc1
- Ki (glucocorticoid receptors [3]; [5]): > 100 nM
- Ki (glucocorticoid receptors [4]; read-out: GR Functional): > 100 nM

SMILES: Cc1ccc(S(=O)(=O)N2CCC3=Cc4c(cnn4-c4ccc(F)cc4)C[C@]3(CN(C)C)C2)cc1
- Ki (glucocorticoid receptors [3]; [5]): < 10 nM
- Ki (glucocorticoid receptors [4]; read-out: GR Functional): 10 to 100 nM

SMILES: CN(CCO)C[C@]12Cc3cnn(-c4ccc(F)cc4)c3C=C1CCN(S(=O)(=O)c1ccc(C(C)(C)C)cc1)C2
- Ki (glucocorticoid receptors [3]; [5]): < 10 nM
- Ki (glucocorticoid receptors [4]; read-out: GR Functional): < 10 nM

SMILES: Cn1cnc(S(=O)(=O)N2CCC3=Cc4c(cnn4-c4ccc(F)cc4)CC3(Cc3ccc(F)cc3)C2)c1 (centres unmarked)
- Ki (glucocorticoid receptors [3]; [5]): < 10 nM
- Ki (glucocorticoid receptors [4]; read-out: GR Functional): > 100 nM

SMILES: Fc1ccc(CC23Cc4cnn(-c5ccc(F)cc5)c4C=C2CCN(Cc2cccnc2)C3)cc1 (centres unmarked)
- Ki (glucocorticoid receptors [3]): 10 to 100 nM
- Ki (glucocorticoid receptors [4]): > 100 nM

SMILES: CC(C)(C)c1ccc(S(=O)(=O)N2CCC3=Cc4c(cnn4-c4ccc(F)cc4)C[C@]3(COCCN3CCCCC3)C2)cc1
- Ki (glucocorticoid receptors [3]; [5]): < 10 nM
- Ki (glucocorticoid receptors [4]; read-out: GR Functional): 10 to 100 nM

SMILES: CC(C)S(=O)(=O)N1CCC2=Cc3c(cnn3-c3ccc(F)cc3)CC2(Cc2ccccc2)C1 (centres unmarked)
- Ki (glucocorticoid receptors [3]; [5]): > 100 nM
- Ki (glucocorticoid receptors [4]; read-out: GR Functional): > 100 nM

SMILES: O=S(=O)(c1ccccc1F)N1CCC2=Cc3c(cnn3-c3ccc(F)cc3)C[C@]2(CN2CCOCC2)C1
- Ki (glucocorticoid receptors [3]; [5]): < 10 nM
- Ki (glucocorticoid receptors [4]; read-out: GR Functional): 10 to 100 nM

SMILES: CN1CCOc2cc(S(=O)(=O)N3CCC4=Cc5c(cnn5-c5ccc(F)cc5)CC4(Cc4ccc(F)cc4)C3)ccc21 (centres unmarked)
- Ki (glucocorticoid receptors [3]; [5]): < 10 nM
- Ki (glucocorticoid receptors [4]; read-out: GR Functional): < 10 nM

SMILES: COC(=O)[C@]12Cc3cnn(-c4ccc(F)cc4)c3C=C1CCN(S(=O)(=O)c1ccc(C(C)(C)C)cc1)C2
- Ki (glucocorticoid receptors [3]; [5]): < 10 nM
- Ki (glucocorticoid receptors [4]; read-out: GR Functional): 10 to 100 nM

SMILES: O=S(=O)(c1ccccc1)N1CCC2=Cc3c(cnn3-c3ccc(F)cc3)C[C@]2(COCCO)C1
- Ki (glucocorticoid receptors [3]; [5]): < 10 nM
- Ki (glucocorticoid receptors [4]; read-out: GR Functional): 10 to 100 nM

SMILES: COCCCOC[C@]12Cc3cnn(-c4ccc(F)cc4)c3C=C1CCN(S(=O)(=O)c1ccc(C(C)(C)C)cc1)C2
- Ki (glucocorticoid receptors [3]; [5]): < 10 nM
- Ki (glucocorticoid receptors [4]; read-out: GR Functional): < 10 nM

SMILES: Cc1ccc(S(=O)(=O)N2CCC3=Cc4c(cnn4-c4ccc(F)cc4)CC3(Cc3ccc(F)cc3)C2)cc1 (centres unmarked)
- Ki (glucocorticoid receptors [3]; [5]): < 10 nM
- Ki (glucocorticoid receptors [4]; read-out: GR Functional): 10 to 100 nM

SMILES: CC(C)(C)c1ccc(S(=O)(=O)N2CCC3=Cc4c(cnn4-c4ccc(F)cc4)C[C@]3(C(=O)NCc3ccccc3)C2)cc1
- Ki (glucocorticoid receptors [3]; [5]): 10 to 100 nM
- Ki (glucocorticoid receptors [4]; read-out: GR Functional): > 100 nM
